≈ marks a conversion by molar mass, not a printed value. Like-named read-outs stand apart in the source and are kept apart here.
Experiments:
[1] = tested on: hypercholesterolemia; experiment: Effect on experimental hypercholesterolemia in male rats; assay type: in vivo, male Wistar rats, HOE: WISKf (SPF 71) strain; details: 100 mg/kg/day, oral, 7 days
Procedure: Groups of in each case 10 male rats of the HOE: WISKf (SPF 71) strain with a weight of about 200 g received each day in the morning a cocktail which contained the substances required to generate a combined dietetic/hormonal hypercholesterolemia, and in each case the product to be tested for the inhibition of hypercholesterolemia, in appropriate dosage. The cocktail was composed of a mixture of 100 g of cholesterol, 30 g of propylthiouracil and 100 g of cholic acid in 1 l of peanut oil. 1 ml of this/100 g of body weight was administered by gavage. The products to be tested were suspended in this cocktail in a concentration such that it contained the daily dose indicated in Table 4 on administration of the amount mentioned above. The other procedure for the treatment and the analysis of the individual parameters were carried out as indicated under 4.1.
Clofibrate was used as comparison product. The results are compiled in Table 4, wherein a) indicates the absolute values and b) indicates the percentage changes.

[2] = tested on: serum lipoproteins; experiment: Effect on serum lipoproteins of normolipemic male rats in a subchronic test; assay type: in vivo, male Wistar rats, HOE: WISKf (SPF 71) strain; details: 100 mg/kg/day, oral, 7 days
Procedure: 4.1 Effect on serum lipoproteins of normolipemic male rats in a subchronic test
Groups of in each case 10 male rats of the HOE: WISKf (SPF 71) strain with an initial weight above 180 g received once a day (in the morning) the test product or the comparison product in 1% aqueous ®Tylose MH 300 solution by stomach tube (0.5 ml/100 g of body weight); the control group in each case received only the vehicle. The last (7th) administration took place 24 hours before removal of blood and sacrifice. There was free access to food and water during the test. The food was withdrawn 24 hours before the removal of blood.
The serum from all 10 rats in a group was pooled for the analysis of the serum lipoproteins. The serum lipoproteins were separated with a preparative ultracentrifuge (KONTRON TGA 65, Rotor BECKMAN 50.4 Ti).
The following conditions specified by Koga, S., Horwitz, D. L., and Scanu, A. M., Journal of Lipid Research 10, 577 (1969) and Havel, R. J., Eder, H. A., and Bragdon, H. H., J. Clin. Invest. 34, 1345 (1955) were used to separate VLDL, LDL and HDL:
Test kits from BOEHRINGER/Mannheim were used for the enzymatic determination of cholesterol and triglycerides in the separated lipoprotein fractions (compare Siedel, J., Schlumberger, H., Klose, S., Ziegenhorn, J. and Wahlefeld, A. W., J. Clin. Chem. Clin. Biochem. 19, 838 (1981) and Wahlefeld, A. W., in: H. O. Bergmeier: Methoden der enzymatischen Analyse (Methods of Enzymatic Analysis), 2nd edition, Volume II, Verlag Chemie 1974, page 1878). The proteins were determined by the method of Lowry (Lowry, O. H., Roseborough, N. J., Farr, A. L. and R. J. Randell, J. Biol. Chem. 193, 265 (1951)).
Clofibrate was used as comparison product.

[3] = tested on: carbohydrate-induced hypertriglyceridemia; experiment: Inhibition of carbohydrate-induced hypertriglyceridemia; assay type: in vivo, male Sprague-Dawley rats
Procedure: Groups of in each case 10 male Sprague-Dawley rats (supplied by the breeder Mollegard with a weight of 250-280 g) received on each of 4 consecutive days one administration of the compound dissolved in PEG 400 by gavage. In addition, after the 3rd administration and 8 and 24 hours later they received 2.5 g of fructose/kg, likewise by gavage. Moreover, after the 3rd administration of product, 50% strength fructose solution was offered to them as drinking water ad libitum, and the food was withdrawn. Retroorbital removal of blood, from which the serum was obtained for the triglyceride determination and VLDL preparation in the ultracentrifuge (flotation at d=1.006), took place 3 hours after the last product/fructose administration. The food received by the animals from 1 week before the 1st administration and up to the 3rd administration was a diet with 40% casein in the feed meal.
The animals develop, as a result of this treatment, a hypertriglyceridemia which approximately corresponds to Fredrickson phenotype IV in humans. The serum triglycerides of the normal animals increased from 0.54 to 1.1 mmol/l, and the VLDL triglycerides from 0.67 to 1.81.

[4] = physchem; details: water
[5] = tested on: bronchial carcinoma cells, A 549; experiment: MTT assay, inhibition of cell proliferation, A 549; assay type: cell-based; details: Homo sapiens, A549; 72 hours incubation
Procedure: (§1) The reduced inhibitory effect on cell proliferation was tested on exponentially growing animal (mouse leukemia cells, L 1210) and human (bronchial carcinoma cells, A 549; colon carcinoma cells, HT 29) tumor cells. This entailed the tumor cells being incubated in RPMI standard medium with various concentrations of the test substances for 72 hours. Cell incubations only in fresh medium served as control. Incubations were set up in quadruplet. […] After incubation for a further 7 to 24 hours, the cell supernatant was carefully removed and the formazan dye in the cells was solubilized by adding DMSO and measured quantitatively by photometry at 492 nm. The ratio of the extinction of the substance incubations to the control incubation was quantified. The coefficient of variation in each incubation series was less than 15%. The following Table 6 indicates the IC50 values (IC50 [μg/ml] is the concentration of the test substance per ml which is necessary for 50% inhibition) from these investigations.

[6] = tested on: colon carcinoma cells, HT 29; experiment: MTT assay, inhibition of cell proliferation, HT 29; assay type: cell-based; details: Homo sapiens, 72 hours incubation
Procedure: as §1

[7] = tested on: mouse leukemia cells, L 1210; experiment: MTT assay, inhibition of cell proliferation, L1210; assay type: cell-based; details: 72 hours incubation
Procedure: as §1

[8] = Table 1, Temp. [°C]: No. 1 25.0, 2 23.0, 3 26.2, 4 25.1, 5 25.2, 6 24.1, 7 24.5, 8 24.2, 9 24.2, 10 25.7, 11 25.8
[9] = Table 2, Temp. [°C]: hydrochloride 25.0, nitrate 23.5, p-toluenesulfonate 23.2, hydrogen (R,R)-tartrate 24.6, free base 24.8

CCOC(=O)C(C)(C)Oc1ccc(Cl)cc1 [Clofibrate, reference compound]
% change compared with control, protein "HDL" d > 1.04 [1]: -27% | % change compared with control, protein LDL [1]: +16% | % change compared with control, protein VLDL [1]: -63% | % change compared with control, total cholesterol "HDL" d > 1.04 [1]: +10% | % change compared with control, total cholesterol LDL [1]: +16% | % change compared with control, total cholesterol VLDL [1]: +27% | % change compared with control, triglycerides VLDL [1]: +21% | Lipoprotein fraction protein "HDL" [1]: 3920 | Lipoprotein fraction protein LDL [1]: 1435 | Lipoprotein fraction protein VLDL [1]: 809 | Lipoprotein fraction total cholesterol "HDL" [1]: 648 | Lipoprotein fraction total cholesterol LDL [1]: 5434 | Lipoprotein fraction total cholesterol VLDL [1]: 5924 | Lipoprotein fraction triglycerides VLDL [1]: 1770 | Serum % change compared with control at the end of treatment, total cholesterol [1]: +20% | Serum % change compared with control at the end of treatment, triglycerides [1]: +26% | Triglycerides, pool [1]: 3.68 mmol/L | Total cholesterol (x) ([1]; mean x): 880 mg/dL | % change compared with control, protein LDL [2]: -32% | % change compared with control, total cholesterol LDL [2]: -31% | % change compared with control, total cholesterol VLDL [2]: -30% | % change compared with control, triglycerides VLDL [2]: -34% | Triglycerides in serum, % change from fructose control ([3]; 100 mg/kg/day, oral, 4 days): -25% | Triglycerides in the VDVL fraction, % change from fructose control ([3]; 100 mg/kg/day, oral, 4 days): -37% | Triglycerides in the VDVL fraction, pool n = 10 ([3]; 100 mg/kg/day, oral, 4 days): 1.15 mmol/L | Triglycerides in serum (x) ([3]; 100 mg/kg/day, oral, 4 days, mean x): 0.83 mmol/L | Inhibitory effect on increase in VLDL triglycerides (in words) ([3]; dose 100 times higher than 1 mg/kg/day): only a slight inhibitory effect

CC1(C)CN(c2ncc(C(=O)Nc3cccc(C(F)(F)F)c3)c(N)n2)C(=O)N1 [Compound 2]
Solubility in water: Concentration in % by weight [8]: 0.08 % by weight | Solubility in water: Molarity [8]: 0.90 × 10^-3

CC1(C)CN(c2ncc(C(=O)Nc3ccc(F)c(C(F)(F)F)c3)c(N)n2)C(=O)N1 [Compound 3]
1 part by mass dissolves in . . . parts of H2 O [8]: 703 parts of H2 O

CC1(C)CN(c2ncc(C(=O)Nc3cc(C(F)(F)F)ccc3Cl)c(N)n2)C(=O)N1 [Compound 4]
1 part by mass dissolves in . . . parts of H2 O [8]: 217 parts of H2 O

CC1(C)CN(c2ncc(C(=O)Nc3ccc(Cl)c(C(F)(F)F)c3)c(N)n2)C(=O)N1 [Compound 5]
1 part by mass dissolves in . . . parts of H2 O [8]: 1055 parts of H2 O

COc1ccc(C(F)(F)F)cc1NC(=O)c1cnc(N2CC(C)(C)NC2=O)nc1N [Compound 6]
Solubility in water (in words): sparingly soluble in water | 1 part by mass dissolves in . . . parts of H2 O [8]: 75 parts of H2 O

COc1ccc(NC(=O)c2cnc(N3CC(C)(C)NC3=O)nc2N)cc1C(F)(F)F [Compound 7]
1 part by mass dissolves in . . . parts of H2 O [8]: 554 parts of H2 O

CCCC1(C)CN(c2ncc(C(=O)Nc3cc(C(F)(F)F)ccc3Cl)c(N)n2)C(=O)N1 (stereo not drawn) [Compound 8]
1 part by mass dissolves in . . . parts of H2 O [8]: 781 parts of H2 O

CN(C(=O)c1cnc(N2CC(C)(C)NC2=O)nc1N)c1cccc(C(F)(F)F)c1.O=C(O)C(O)C(O)C(=O)O [Hydrogen (R,R)-tartrate, 4-amino-2-(4,4-dimethyl-2-oxo-1-imidazolidinyl)pyrimidine-5-carboxylic acid N-methyl-N-(3-trifluoromethylphenyl)amide hydrogen (R,R)-tartrate]
1 part by mass dissolves in . . . parts of H2 O [9]: < 9.90 parts of H2 O | solubility [4]: > 91 mg/mL

CN(C(=O)c1cnc(N2CC(C)(C)NC2=O)nc1N)c1cccc(C(F)(F)F)c1.O=[N+]([O-])O [Nitrate, 4-amino-2-(4,4-dimethyl-2-oxo-1-imidazolidinyl)pyrimidine-5-carboxylic acid N-methyl-N-(3-trifluoromethylphenyl)amide nitrate]
1 part by mass dissolves in . . . parts of H2 O [9]: 8.13 parts of H2 O | solubility [4]: 110 mg/mL

CC1(C)CN(c2ncc(C(=O)Nc3cccc(C(F)(F)F)c3)c(N)n2)C(=O)N1 [No. 1, 4-amino-2-(4,4-dimethylimidazolidin-2-on-1-yl)pyrimidine-5-carboxylic acid N-(3-trifluoromethylphenyl)amide, reference compound]
IC50 [5]: 3.4 µg/mL (≈ 8.62 µM) | IC50 [6]: 4.3 µg/mL (≈ 10.9 µM) | IC50 [7]: 0.7 µg/mL (≈ 1.78 µM)

CCCC1(C)CN(c2ncc(C(=O)Nc3ccc(Cl)c(C(F)(F)F)c3)c(N)n2)C(=O)N1 (stereo not drawn) [No. 9, reference compound]
1 part by mass dissolves in . . . parts of H2 O [8]: 725 parts of H2 O | Solubility in water: Concentration in % by weight [8]: 0.13 % by weight

CCCC1(C)CN(c2ncc(C(=O)Nc3cccc(C(F)(F)F)c3)c(N)n2)C(=O)N1 (stereo not drawn) [No. 10, reference compound]
1 part by mass dissolves in . . . parts of H2 O [8]: 255 parts of H2 O | Solubility in water: Molarity [8]: 8.54 × 10^-3

CC1NC(=O)N(c2ncc(C(=O)Nc3cccc(C(F)(F)F)c3)c(N)n2)C1C (stereo not drawn) [No. 11, reference compound]
1 part by mass dissolves in . . . parts of H2 O [8]: 277 parts of H2 O

CC1(C)CN(c2ncc(C(=O)Nc3cccc(C(F)(F)F)c3)c(N)n2)C(=O)N1 [imanixil, 4-amino-2-(4,4-dimethylimidazolidin-2-on-1-yl)pyrimidine-5-carboxylic acid N-(3-trifluoromethylphenyl)amide, reference compound]
Solubility in water (in words): exceptionally slightly soluble in water

CN(C(=O)c1cnc(N2CC(C)(C)NC2=O)nc1N)c1cccc(C(F)(F)F)c1.Cc1ccc(S(=O)(=O)O)cc1 [p-Toluenesulfonate, 4-amino-2-(4,4-dimethyl-2-oxo-1-imidazolidinyl)pyrimidine-5-carboxylic aci d N-methyl-N-(3-trifluoromethylphenyl)amide p-toluenesulfonate]
1 part by mass dissolves in . . . parts of H2 O [9]: 14.44 parts of H2 O | solubility [4]: 65 mg/mL
